Earlier results in patent US20020037899A1, “Compositions containing an inhibitor of dihydrofolate reductase and a folate” (priority 2000, published 2002).

Tests used:
[1] = test system: rheumatoid arthritis patients receiving methotrexate; conditions: for reduction in mucosal and gastrointestinal side effect: folic acid or folinic acid administered to rheumatoid arthritis patients receiving methotrexate
[2] = not given; remark: listed apart in the source

stable to heating at temperatures	solubility in water [2] [mg per ml]	Compound	reduction in mucosal and gastrointestinal side effect [1] [%]	effect on disease symptoms such as painful joints ([1]; high dosages of folinic acid, rheumatoid arthritis patients receiving methotrexate)
below 200 °C	1.6	Nc1nc2ncc(CNc3ccc(C(=O)N[C@@H](CCC(=O)O)C(=O)O)cc3)nc2c(=O)[nH]1 [folic acid]	79	
		Nc1nc(=O)c2c([nH]1)NCC(CNc1ccc(C(=O)N[C@@H](CCC(=O)O)C(=O)O)cc1)N2C=O (mixture of isomers) [folinic acid]	79	increase in disease symptoms
